The text below walks through data of patent US12662479B2 (Foghorn Therapeutics Inc., priority 2020, dated 2026).

One test has as its target T1, HiBit-BRM fusion protein (Homo sapiens, UniProt P51531).
T1 construct: expressed in transfected cells
Briefly: HiBiT-BRM cell-based degradation assay (Nano-Glo HiBiT Lytic Detection, 24 h). The settings on record: HeLa cells expressing HiBiT-BRM; for DC50: read-out: BRM HiBit Degradation IC50; for BRM HiBit Degradation Maximum measured: top dose 30 μM. A digest of the protocol:
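Luminescence from reconstituted NanoBiT luciferase in lysed HeLa HiBiT-BRM cells served as the measure of remaining BRM after 24 h treatment. Compounds were tested from 30 μM final downward in 3-fold steps. DMSO and 2 μM of a standard BRM/BRG1 degrader defined the scale limits.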

The target of test [1] is T2, HiBit-BRG1 fusion protein (Homo sapiens, UniProt P51532).
T2 construct: expressed in transfected cells
Briefly: HiBiT-BRG1 cell-based degradation assay (Nano-Glo HiBiT Lytic Detection, 24 h). The settings on record: HeLa cells expressing HiBit-BRG1 and LgBit; for DC50: read-out: BRG1 HiBit Degradation IC50; for Dmax: HeLa, top dose 30 μM, read-out: BRG1 HiBit Degradation Maximum measured. The method in brief:
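Stable HeLa line expressing HiBiT-BRG1 and LgBiT, seeded at 5000 cells/well; luminescence read after lytic Nano-Glo HiBiT reagent and 10 min shaking at RT. % degradation normalised between DMSO (high control) and 2 μM reference BRM/BRG1 degrader (low control).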

T1 sequence (P51531 whole entry, the tested form may be a part): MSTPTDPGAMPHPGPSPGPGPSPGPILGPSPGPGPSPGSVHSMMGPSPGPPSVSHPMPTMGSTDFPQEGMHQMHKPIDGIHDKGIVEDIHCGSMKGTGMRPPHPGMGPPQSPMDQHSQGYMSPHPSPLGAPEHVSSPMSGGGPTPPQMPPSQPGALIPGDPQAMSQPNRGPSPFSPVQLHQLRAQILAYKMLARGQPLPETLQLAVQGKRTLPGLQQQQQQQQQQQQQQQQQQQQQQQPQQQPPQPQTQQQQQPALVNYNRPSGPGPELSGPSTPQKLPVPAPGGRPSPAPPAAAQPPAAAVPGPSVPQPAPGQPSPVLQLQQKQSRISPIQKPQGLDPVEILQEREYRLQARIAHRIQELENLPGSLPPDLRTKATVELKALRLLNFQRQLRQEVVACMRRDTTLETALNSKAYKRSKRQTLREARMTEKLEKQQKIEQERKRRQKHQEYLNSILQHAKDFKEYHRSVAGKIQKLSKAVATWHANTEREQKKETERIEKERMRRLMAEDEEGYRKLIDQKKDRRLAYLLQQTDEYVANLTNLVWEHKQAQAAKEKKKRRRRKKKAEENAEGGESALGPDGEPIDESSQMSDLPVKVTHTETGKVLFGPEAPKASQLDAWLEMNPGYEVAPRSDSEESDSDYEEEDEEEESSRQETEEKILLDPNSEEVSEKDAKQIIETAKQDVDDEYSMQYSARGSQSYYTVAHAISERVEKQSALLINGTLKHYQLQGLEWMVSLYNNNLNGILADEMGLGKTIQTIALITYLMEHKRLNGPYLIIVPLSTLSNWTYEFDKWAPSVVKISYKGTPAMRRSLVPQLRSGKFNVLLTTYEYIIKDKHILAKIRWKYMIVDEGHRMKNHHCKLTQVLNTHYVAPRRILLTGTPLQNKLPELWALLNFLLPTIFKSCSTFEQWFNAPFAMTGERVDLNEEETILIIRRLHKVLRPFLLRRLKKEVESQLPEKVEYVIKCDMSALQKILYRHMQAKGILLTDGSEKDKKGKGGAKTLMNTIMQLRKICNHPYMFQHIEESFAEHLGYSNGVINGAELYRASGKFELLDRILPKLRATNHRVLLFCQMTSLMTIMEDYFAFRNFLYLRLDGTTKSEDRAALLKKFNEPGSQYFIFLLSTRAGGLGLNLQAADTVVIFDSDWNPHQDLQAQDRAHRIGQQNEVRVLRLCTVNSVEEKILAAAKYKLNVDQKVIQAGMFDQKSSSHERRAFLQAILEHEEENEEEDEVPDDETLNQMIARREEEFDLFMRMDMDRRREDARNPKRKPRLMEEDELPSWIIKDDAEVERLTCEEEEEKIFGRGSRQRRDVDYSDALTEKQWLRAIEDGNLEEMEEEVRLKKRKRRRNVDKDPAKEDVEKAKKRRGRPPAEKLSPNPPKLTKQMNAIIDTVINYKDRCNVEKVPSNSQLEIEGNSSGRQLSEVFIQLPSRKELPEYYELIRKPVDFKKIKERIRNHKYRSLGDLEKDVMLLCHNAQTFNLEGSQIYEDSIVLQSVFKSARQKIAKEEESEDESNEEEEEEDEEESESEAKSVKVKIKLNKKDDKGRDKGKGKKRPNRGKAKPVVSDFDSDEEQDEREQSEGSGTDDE
T2 sequence (P51532 whole entry, the tested form may be a part): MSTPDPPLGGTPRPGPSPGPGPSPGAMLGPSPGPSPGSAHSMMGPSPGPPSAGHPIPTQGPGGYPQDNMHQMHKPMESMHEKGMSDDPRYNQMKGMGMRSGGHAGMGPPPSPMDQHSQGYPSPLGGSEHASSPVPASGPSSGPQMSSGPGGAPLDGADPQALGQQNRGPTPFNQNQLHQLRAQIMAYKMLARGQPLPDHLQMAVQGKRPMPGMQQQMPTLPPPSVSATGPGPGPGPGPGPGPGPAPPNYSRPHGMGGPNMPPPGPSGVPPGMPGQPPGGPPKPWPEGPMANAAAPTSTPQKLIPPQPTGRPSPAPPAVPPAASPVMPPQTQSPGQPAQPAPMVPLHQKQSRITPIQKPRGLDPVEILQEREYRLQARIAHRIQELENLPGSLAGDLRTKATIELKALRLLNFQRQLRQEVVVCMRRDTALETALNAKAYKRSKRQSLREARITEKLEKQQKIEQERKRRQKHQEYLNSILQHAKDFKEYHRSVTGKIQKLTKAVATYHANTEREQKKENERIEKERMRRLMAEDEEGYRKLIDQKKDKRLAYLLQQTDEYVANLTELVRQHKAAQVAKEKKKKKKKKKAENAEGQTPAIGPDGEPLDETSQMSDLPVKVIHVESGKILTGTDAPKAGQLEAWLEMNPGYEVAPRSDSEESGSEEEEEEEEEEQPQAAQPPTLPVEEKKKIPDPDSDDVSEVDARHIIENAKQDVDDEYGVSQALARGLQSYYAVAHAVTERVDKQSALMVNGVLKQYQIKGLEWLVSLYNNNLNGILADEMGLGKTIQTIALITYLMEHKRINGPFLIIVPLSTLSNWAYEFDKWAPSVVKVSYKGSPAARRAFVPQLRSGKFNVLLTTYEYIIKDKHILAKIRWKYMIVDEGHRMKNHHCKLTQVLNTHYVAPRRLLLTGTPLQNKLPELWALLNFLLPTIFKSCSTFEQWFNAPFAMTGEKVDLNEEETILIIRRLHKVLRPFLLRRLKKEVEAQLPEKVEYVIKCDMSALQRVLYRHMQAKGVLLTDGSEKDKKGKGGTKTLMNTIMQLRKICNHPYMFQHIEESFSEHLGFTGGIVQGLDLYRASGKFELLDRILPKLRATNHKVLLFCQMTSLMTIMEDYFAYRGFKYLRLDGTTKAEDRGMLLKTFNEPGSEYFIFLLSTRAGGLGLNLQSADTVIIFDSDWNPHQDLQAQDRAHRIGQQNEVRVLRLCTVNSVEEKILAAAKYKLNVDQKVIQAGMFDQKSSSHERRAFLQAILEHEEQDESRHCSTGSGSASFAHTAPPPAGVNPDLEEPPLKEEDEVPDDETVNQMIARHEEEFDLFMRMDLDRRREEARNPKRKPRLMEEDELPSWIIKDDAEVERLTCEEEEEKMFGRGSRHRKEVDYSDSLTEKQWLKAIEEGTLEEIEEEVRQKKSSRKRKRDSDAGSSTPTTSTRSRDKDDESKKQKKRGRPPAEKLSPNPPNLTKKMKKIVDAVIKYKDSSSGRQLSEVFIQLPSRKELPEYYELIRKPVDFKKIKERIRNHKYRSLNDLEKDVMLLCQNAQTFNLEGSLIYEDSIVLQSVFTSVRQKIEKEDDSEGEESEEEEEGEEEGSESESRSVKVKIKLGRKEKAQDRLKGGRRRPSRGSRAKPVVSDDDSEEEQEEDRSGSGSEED

For the molecule `Cc1ncsc1-c1ccc(CNC(=O)[C@@H]2C[C@@H](O)CN2C(=O)[C@@H](NC(=O)CCCCCCCC(=O)NCc2cccc(-c3cccc(-c4csc(NC(=O)CNC(=O)c5ccn(S(C)(=O)=O)c5)n4)c3)c2)C(C)(C)C)cc1` [Compound 49, N1-((S)-1-((2S,4R)-4-hydroxy-2-((4-(4-methylthiazol-5-yl)benzyl)carbamoyl)pyrrolidin-1-yl)-3,3-dimethyl-1-oxobutan-2-yl)-N9-((3′-(2-(2-(1-(methylsulfonyl)-1H-pyrrole-3-carboxamido)acetamido)thiazol-4-yl)-[1,1′-biphenyl]-3-yl)methyl)nonanediamide], on HiBit-BRM fusion protein, the DC50 is below 100 nM and the “BRM HiBit Degradation Maximum measured” value is reported as “A (‘A’ = Maximum degradation >75%)”. For the same molecule, in test [1], the DC50 was below 100 nM and the Dmax is above 75%.

In the case of `CS(=O)(=O)n1ccc(C(=O)NCC(=O)Nc2nc(-c3cccc(-c4ccnc(OCCNC(=O)CCOCCOCCNc5cccc6c5C(=O)N(C5CCC(=O)NC5=O)C6=O)c4)c3)cs2)c1` (stereo not drawn) [Compound 81, N-[2-[[4-[3-[2-[2-[3-[2-[2-[[2-(2,6-dioxo-3-piperidyl)-1,3-dioxoisoindolin-4-yl]amino]ethoxy]ethoxy]propanoylamino]ethoxy]-4-pyridyl]phenyl]thiazol-2-yl]amino]-2-oxo-ethyl]-1-methylsulfonyl-pyrrole-3-carboxamide], on HiBit-BRM fusion protein, the DC50 is above 10000 nM and the “BRM HiBit Degradation Maximum measured” value is listed as “C (‘C’ = Maximum degradation <50%)”. In test [1], the DC50 was in the range of 100 to 1000 nM and the Dmax was in the range of 50 to 75%.

Take `CS(=O)(=O)n1ccc(C(=O)N[C@@H](COCc2ccc(C(=O)NCCCC#Cc3ccc4c(c3)C(=O)N(C3CCC(=O)NC3=O)C4=O)cc2)C(=O)Nc2nc(-c3ccccc3)cs2)c1` (stereo partly drawn) [Compound 204, N-[5-[2-(2,6-dioxopiperidin-3-yl)-1,3-dioxoisoindol-5-yl]pent-4-yn-1-yl]-4-[[(2S)-2-[(1-methanesulfonylpyrrol-3-yl)formamido]-2-[(4-phenyl-1,3-thiazol-2-yl)carbamoyl]ethoxy]methyl]benzamide]: at HiBit-BRM fusion protein, the DC50 was above 10000 nM and the “BRM HiBit Degradation Maximum measured” value is listed as “C (‘C’ = Maximum degradation <50%)”. For the same molecule, in test [1], the DC50 lay in the range of 100 to 1000 nM and the Dmax was in the range of 50 to 75%.

In the case of `CS(=O)(=O)n1ccc(C(=O)N[C@@H](COCc2ccc(CNC(=O)CCN3CCN(c4ccc5c(c4)C(=O)N(C4CCC(=O)NC4=O)C5=O)CC3)cc2)C(=O)Nc2nc(-c3ccccc3)cs2)c1` (stereo partly drawn) [Compound 215, (2S)-3-([4-[(3-[4-[2-(2,6-dioxopiperidin-3-yl)-1,3-dioxoisoindol-5-yl]piperazin-1-yl]propanamido)methyl]phenyl]methoxy)-2-[(1-methanesulfonylpyrrol-3-yl)formamido]-N-(4-phenyl-1,3-thiazol-2-yl)propanamide; formic acid], on HiBit-BRM fusion protein, the DC50 fell in the range of 100 to 1000 nM; the “BRM HiBit Degradation Maximum measured” value was “B (‘B’ = Maximum degradation ≥50% and ≤75%)”. Also, in test [1], the DC50 was 100 to 1000 nM and the Dmax is above 75%.

On to `CS(=O)(=O)n1ccc(C(=O)NC(CCOCCCC(=O)NC2CCN(CCOc3ccc4c(c3)C(=O)N(C3CCC(=O)NC3=O)C4=O)CC2)C(=O)Nc2nc(-c3ccccc3)cs2)c1` [Compound 279, (2S)-4-(3-[[1-(2-[[2-(2,6-dioxopiperidin-3-yl)-1,3-dioxoisoindol-5-yl]oxylethyl)piperidin-4-yl]carbamoyl]propoxy)-2-[(1-methanesulfonylpyrrol-3-yl)formamido]-N-(4-phenyl-1,3-thiazol-2-yl)butanamide; formic acid], for which, on HiBit-BRM fusion protein, the DC50 is above 10000 nM and the “BRM HiBit Degradation Maximum measured” value was “C (‘C’ = Maximum degradation <50%)”. In test [1], the DC50 was above 10000 nM and the Dmax is below 50%.

In the case of `Cc1ncsc1-c1ccc(CNC(=O)[C@@H]2C[C@@H](O)CN2C(=O)[C@@H](NC(=O)CCCCCCCNC(=O)CCCOC[C@H](NC(=O)c2ccn(S(C)(=O)=O)c2)C(=O)Nc2nc(-c3ccccc3)cs2)C(C)(C)C)cc1` [Compound 227, (2S,4R)-4-hydroxy-1-[(2S)-2-(8-[4-[(2S)-2-[(1-methanesulfonylpyrrol-3-yl)formamido]-2-[(4-phenyl-1,3-thiazol-2-yl)carbamoyl]ethoxy]butanamido]octanamido)-3,3-dimethylbutanoyl]-N-[[4-(4-methyl-1,3-thiazol-5-yl)phenyl]methyl]pyrrolidine-2-carboxamide], at HiBit-BRM fusion protein, the DC50 is above 10000 nM and the “BRM HiBit Degradation Maximum measured” value is recorded as “C (‘C’ = Maximum degradation <50%)”. In test [1], the DC50 is above 10000 nM and the Dmax was below 50%.

On to `CS(=O)(=O)n1ccc(C(=O)N[C@@H](COCc2ccc(C(=O)NCCOc3ccc4c(c3)C(=O)N(C3CCC(=O)NC3=O)C4=O)cc2)C(=O)Nc2nc(-c3ccccc3)cs2)c1` (stereo partly drawn) [Compound 200, N-(2-[[2-(2,6-dioxopiperidin-3-yl)-1,3-dioxoisoindol-5-yl]oxy]ethyl)-4-[[(2S)-2-[(1-methanesulfonylpyrrol-3-yl)formamido]-2-[(4-phenyl-1,3-thiazol-2-yl)carbamoyl]ethoxy]methyl]benzamide], for which, on HiBit-BRM fusion protein, the DC50 was above 10000 nM and the “BRM HiBit Degradation Maximum measured” value was “C (‘C’ = Maximum degradation <50%)”. In test [1], the DC50 is above 10000 nM and the Dmax is below 50%.

For `CS(=O)(=O)n1ccc(C(=O)N[C@@H](COCc2ccc(C(=O)N3CCC4(CC3)CC(Oc3ccc5c(c3)C(=O)N(C3CCC(=O)NC3=O)C5=O)C4)cc2)C(=O)Nc2nc(-c3ccccc3)cs2)c1` (stereo partly drawn) [Compound 199, (2S)-3-[[4-(2-[[2-(2,6-dioxopiperidin-3-yl)-1,3-dioxoisoindol-5-yl]oxy]-7-azaspiro[3.5]nonane-7-carbonyl)phenyl]methoxy]-2-[(1-methanesulfonylpyrrol-3-yl)formamido]-N-(4-phenyl-1,3-thiazol-2-yl)propanamide], at HiBit-BRM fusion protein, the DC50 is above 10000 nM and the “BRM HiBit Degradation Maximum measured” value is given as “C (‘C’ = Maximum degradation <50%)”. Besides, in test [1], the DC50 is above 10000 nM and the Dmax is below 50%.

On to `Cc1ncsc1-c1ccc(CNC(=O)[C@@H]2C[C@@H](O)CN2C(=O)[C@@H](NC(=O)CCCC(=O)N2CCN(c3cc(-c4cccc(-c5csc(NC(=O)CNC(=O)c6ccn(S(C)(=O)=O)c6)n5)c4)ccn3)CC2)C(C)(C)C)cc1` [Compound 79, N-(2-((4-(3-(2-(4-(5-(((S)-1-((2S,4R)-4-hydroxy-2-((4-(4-methylthiazol-5-yl)benzyl)carbamoyl)pyrrolidin-1-yl)-3,3-dimethyl-1-oxobutan-2-yl)amino)-5-oxopentanoyl)piperazin-1-yl)pyridin-4-yl)phenyl)thiazol-2-yl)amino)-2-oxoethyl)-1-(methylsulfonyl)-1H-pyrrole-3-carboxamide], for which, on HiBit-BRM fusion protein, the DC50 is above 10000 nM and the “BRM HiBit Degradation Maximum measured” value was “C (‘C’ = Maximum degradation <50%)”. Also, in test [1], the DC50 is above 10000 nM and the Dmax is below 50%.

Take `Cc1ncsc1-c1ccc(CNC(=O)[C@@H]2C[C@@H](O)CN2C(=O)[C@@H](NC(=O)COCCOCC(=O)NCc2cccc(-c3cccc(-c4csc(NC(=O)CNC(=O)c5ccn(S(C)(=O)=O)c5)n4)c3)c2)C(C)(C)C)cc1` [Compound 44, N-(2-((4-(3′-((S)-12-((2S,4R)-4-hydroxy-2-((4-(4-methylthiazol-5-yl)benzyl)carbamoyl)pyrrolidine-1-carbonyl)-13,13-dimethyl-3,10-dioxo-5,8-dioxa-2,11-diazatetradecyl)-[1,1′-biphenyl]-3-yl)thiazol-2-yl)amino)-2-oxoethyl)-1-(methylsulfonyl)-1H-pyrrole-3-carboxamide]: at HiBit-BRM fusion protein, the DC50 lay within 1000 to 10000 nM; the “BRM HiBit Degradation Maximum measured” value is “B (‘B’ = Maximum degradation ≥50% and ≤75%)”. In test [1], the DC50 fell in the range of 1000 to 10000 nM and the Dmax was above 75%.

For the molecule `Cc1ncsc1-c1ccc(CNC(=O)[C@@H]2C[C@@H](O)CN2C(=O)[C@@H](NC(=O)CN2CC3(CC(C(=O)NCc4cccc(-c5cccc(-c6csc(NC(=O)CNC(=O)c7ccn(S(C)(=O)=O)c7)n6)c5)c4)C3)C2)C(C)(C)C)cc1` [Compound 163, 2-([[(2S)-1-[(2S,4R)-4-hydroxy-2-([[4-(4-methyl-1,3-thiazol-5-yl)phenyl]methyl]carbamoyl)pyrrolidin-1-yl]-3,3-dimethyl-1-oxobutan-2-yl]carbamoyl]methyl)-N-[[3-(2-[2-[(1-methanesulfonylpyrrol-3-yl)formamido]acetamido]-1,3-thiazol-4-yl)-[1,1-biphenyl]-3-yl]methyl]-2-azaspiro[3.3]heptane-6-carboxamide], on HiBit-BRM fusion protein, the DC50 fell in the range of 100 to 1000 nM; the “BRM HiBit Degradation Maximum measured” value is “B (‘B’ = Maximum degradation ≥50% and ≤75%)”. Further, in test [1], the DC50 is above 10000 nM and the Dmax was below 50%.

On to `CS(=O)(=O)n1ccc(C(=O)NCC(=O)Nc2nc(-c3cccc(-c4ccnc(N5CCN(C(=O)CCOCCOCCNc6cccc7c6C(=O)N(C6CCC(=O)NC6=O)C7=O)CC5)c4)c3)cs2)c1` (stereo not drawn) [Compound 31, N-[2-[[4-[3-[2-[4-[3-[2-[2-[[2-(2,6-dioxo-3-piperidyl)-1,3-dioxo-isoindolin-4-yl]amino]ethoxy]ethoxy]propanoyl]piperazin-1-yl]-4-pyridyl]phenyl]thiazol-2-yl]amino]-2-oxo-ethyl]-1-methylsulfonyl-pyrrole-3-carboxamide], for which, at HiBit-BRM fusion protein, the DC50 fell in the range of 100 to 1000 nM and the “BRM HiBit Degradation Maximum measured” value was “A (‘A’ = Maximum degradation >75%)”. Moreover, in test [1], the DC50 was in the range of 100 to 1000 nM and the Dmax was above 75%.
